The source made the active and inactive calls. No cut-off for these calls is given here.
Assays:
[1] = system: MCF7; test: Induction of apoptosis in human MCF7 cells assessed as viable cells at 15 uM after 72 hrs by AnnexinV-FITC staining based flow cytometry (reference value: 60.5 +/- 6 %); assay type: functional; details: MCF7, 72 h, read-out: Activity
[2] = Antiproliferative activity against human Ovarian cancer DC#110 cells assessed as cell survival at 20 uM after 72 hrs by MTT assay relative to control; assay type: functional; details: read-out: Survival
[3] = system: MCF7; test: Induction of apoptosis in human MCF7 cells assessed as viable cells at 15 uM after 48 hrs by AnnexinV-FITC staining based flow cytometry (reference value: 74.4 +/- 9.1 %); assay type: functional; details: MCF7, 48 h, read-out: Activity
[4] = system: MCF7; test: Induction of apoptosis in human MCF7 cells assessed as early apoptotic cells at 15 uM after 48 hrs by AnnexinV-FITC staining based flow cytometry (reference value: 7.8 +/- 5.3 %); assay type: functional
[5] = system: MCF7; test: Induction of apoptosis in human MCF7 cells assessed as necrotic cells at 15 uM after 48 hrs by AnnexinV-FITC staining based flow cytometry (reference value: 10.2 +/- 1.9 %); assay type: functional
[6] = target: T1, Histone-lysine N-methyltransferase EHMT2 (Homo sapiens) (UniProt Q96KQ7); test: Inhibition of G9a in human MCF7 nuclear extracts assessed as reduction in H3K9 levels at 15 uM after 48 hrs; assay type: cell-based
T1 sequence (whole entry): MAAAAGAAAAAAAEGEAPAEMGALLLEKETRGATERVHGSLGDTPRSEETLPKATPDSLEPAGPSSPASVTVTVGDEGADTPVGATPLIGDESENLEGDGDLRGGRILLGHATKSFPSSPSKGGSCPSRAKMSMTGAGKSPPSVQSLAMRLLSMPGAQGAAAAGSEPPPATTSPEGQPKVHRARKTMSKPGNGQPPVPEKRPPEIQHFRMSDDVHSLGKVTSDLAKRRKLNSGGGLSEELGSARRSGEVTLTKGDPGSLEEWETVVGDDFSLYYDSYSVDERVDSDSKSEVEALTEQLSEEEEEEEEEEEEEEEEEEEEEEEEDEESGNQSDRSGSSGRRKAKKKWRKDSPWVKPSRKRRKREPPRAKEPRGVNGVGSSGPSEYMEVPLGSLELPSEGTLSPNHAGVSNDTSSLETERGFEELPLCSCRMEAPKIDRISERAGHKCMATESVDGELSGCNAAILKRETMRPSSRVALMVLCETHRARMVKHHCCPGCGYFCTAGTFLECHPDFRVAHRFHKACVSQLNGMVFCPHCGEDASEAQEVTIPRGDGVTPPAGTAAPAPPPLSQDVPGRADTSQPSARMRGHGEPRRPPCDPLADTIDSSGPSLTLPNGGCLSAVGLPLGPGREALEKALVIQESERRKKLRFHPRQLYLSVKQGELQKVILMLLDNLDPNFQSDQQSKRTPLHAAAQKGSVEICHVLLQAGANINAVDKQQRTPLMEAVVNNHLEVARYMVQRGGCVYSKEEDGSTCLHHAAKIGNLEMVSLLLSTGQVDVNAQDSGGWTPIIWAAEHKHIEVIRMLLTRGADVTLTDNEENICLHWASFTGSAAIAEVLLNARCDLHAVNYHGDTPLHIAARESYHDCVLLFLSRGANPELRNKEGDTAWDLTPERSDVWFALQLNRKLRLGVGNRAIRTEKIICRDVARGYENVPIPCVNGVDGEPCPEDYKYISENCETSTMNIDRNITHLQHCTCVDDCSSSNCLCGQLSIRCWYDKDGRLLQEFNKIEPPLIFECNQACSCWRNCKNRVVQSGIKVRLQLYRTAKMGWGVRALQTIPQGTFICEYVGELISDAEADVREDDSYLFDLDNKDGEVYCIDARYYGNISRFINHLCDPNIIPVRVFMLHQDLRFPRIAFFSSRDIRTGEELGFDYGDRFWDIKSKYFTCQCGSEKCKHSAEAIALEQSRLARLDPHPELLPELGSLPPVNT

[7] = system: MCF7; test: Inhibition of DNA methylation in human MCF7 cells assessed as reduction in H3K9me3 levels at 15 uM after 48 hrs by Western blot analysis; assay type: cell-based
[8] = Antiproliferative activity against human Ovarian cancer DC#83 cells assessed as cell survival at 20 uM after 72 hrs by MTT assay relative to control; assay type: functional; details: read-out: Survival
[9] = system: MCF7; test: Inhibition of DNA methylation in human MCF7 cells assessed as decrease in methylation of RARbeta DNA by qPCR method; assay type: cell-based
[10] = system: MCF7; test: Induction of apoptosis in human MCF7 cells assessed as early apoptotic cells at 15 uM after 72 hrs by AnnexinV-FITC staining based flow cytometry (reference value: 20.1 +/- 7.3 %); assay type: functional
[11] = system: MCF7; test: Induction of apoptosis in human MCF7 cells assessed as late apoptotic cells at 15 uM after 48 hrs by AnnexinV-FITC staining based flow cytometry (reference value: 7.6 +/- 5.9 %); assay type: functional
[12] = system: MCF7; test: Induction of apoptosis in human MCF7 cells assessed as necrotic cells at 15 uM after 72 hrs by AnnexinV-FITC staining based flow cytometry (reference value: 7.6 +/- 1 %); assay type: functional
[13] = system: MCF7; test: Antiproliferative activity against human MCF7 cells after 48 to 72 hrs by MTT assay; assay type: functional, cell-based
[14] = Antiproliferative activity against human Ovarian cancer LA#110 cells assessed as cell survival at 20 uM after 72 hrs by MTT assay relative to control; assay type: functional; details: read-out: Survival
[15] = system: MCF7; test: Inhibition of DNA methylation in human MCF7 cells assessed as decrease in 5-methylcytosine level by ELISA; assay type: cell-based
[16] = system: MCF7; test: Cell cycle arrest in human MCF7 cells assessed as accumulation at S phase at 15 uM after 24 to 72 hrs by flow cytometry relative to control; assay type: functional
[17] = Antiproliferative activity against human Ovarian cancer LA#83 cells assessed as cell survival at 20 uM after 72 hrs by MTT assay relative to control; assay type: functional; details: read-out: Survival
[18] = Antiproliferative activity against human H460 cells after 48 to 72 hrs by MTT assay; assay type: functional, cell-based; details: NCI-H460
[19] = system: MCF7; test: Inhibition of DNA methylation in human MCF7 cells assessed as reduction in H3K27me3 levels at 15 uM after 48 hrs by Western blot analysis; assay type: cell-based
[20] = system: MSTO-211H; test: Antiproliferative activity against human MSTO-211H cells after 48 to 72 hrs by MTT assay; assay type: functional, cell-based
[21] = system: MCF7; test: Induction of apoptosis in human MCF7 cells assessed as late apoptotic cells at 15 uM after 72 hrs by AnnexinV-FITC staining based flow cytometry (reference value: 11.8 +/- 2.2 %); assay type: functional
[22] = system: MCF7; test: Inhibition of DNA methylation in human MCF7 cells assessed as melting temperature of RARbeta amplicon DNA by qPCR method (reference value: 77 degC); assay type: cell-based
[23] = system: MCF7; test: Cell cycle arrest in human MCF7 cells assessed as accumulation at G2/M phase at 15 uM after 72 hrs by flow cytometry relative to control; assay type: functional
[24] = target: T1, Histone-lysine N-methyltransferase EHMT2 (Homo sapiens); test: Inhibition of G9a in human MCF7 nuclear extracts assessed as reduction in H3K27 levels at 15 uM after 48 hrs; assay type: cell-based
[25] = system: MCF7; test: Inhibition of DNA methylation in human MCF7 cells assessed as reduction in H3K9me3 levels at 0.5 to 1 uM after 48 hrs by Western blot analysis; assay type: cell-based

Compound	viability at 15 µM [1]	viability at 20 µM [2]	viability at 15 µM [3]	Activity [4]	Activity [5]	inhibition [6]	inhibition [7]	viability at 20 µM [8]	Activity [10]	Activity [11]	Activity [12]	IC50 [13]	viability at 20 µM [14]	inhibition [15]	viability at 20 µM [17]	IC50 [18]	inhibition [19]	IC50 [20]	Activity [21]	inhibition [24]	further results
CCCCN1C(=O)[C@@H]2Cc3c([nH]c4ccccc34)CN2C1=O	47.7%	80.8%	69%	13%	4.2%	Active	inactive	93.3%	27.9%	13.8%	6.7%	37.5 µM	66.7%	Active	81.9%	> 20000 nM	inactive	> 20000 nM	17.7%	–	inhibition [9]: inactive; Activity [16]: 10.8%
CN1c2ccccc2C(=O)N2CCc3c([nH]c4ccccc34)[C@H]21	41.9%	43.1%	51.5%	11.9%	9%	Active	100%	65.5%	16.8%	27.6%	8.1%	5.4 µM	26.8%	Active	53.2%	260 nM	60%	540 nM	33.2%	inactive	Tm [22]: 75.5 °C; Activity [23]: 39.3%
Nc1nccc2c1ncn2[C@@H]1C=C(CO)[C@@H](O)[C@H]1O	52.6%	13.6%	32.2%	12.8%	7.8%	Active	–	63.5%	17.4%	16.1%	5.9%	–	30.4%	–	42.5%	–	–	–	24.1%	Active	inhibition [25]: inactive

From ChEMBL document CHEMBL3822445, “Histone demethylating agents as potential S-adenosyl-l-methionine-competitors” (Medchemcomm, 2016)
